Where two headings read alike, the source gives them in different places.
Assays:
[1] = Stability test (hydrolysis) in human plasma (80%, 37 °C); type: in vitro ADME
Protocol: The condition for determining the values of the observed rate constants is to observe changes in the concentration of the tested compound over time ensuring degradation of at least 80% of the compound. In plasma, hydrolysis reactions were carried out until a minimum 50% loss of the tested compound was obtained except for the extremely stable 6-(4-MeOPh)-TACV under these conditions. In this case, the observed loss was 22% during the 25-h reaction. Further carrying out of this reaction in vitro in a temperature of 37 °C was not recommended (Figure 2).
Stability tests were performed in human plasma (80%, v/v) thermostated in a water bath at 37 °C. In total, 2.50 mg of each of the analyzed compounds were weighed and dissolved in 0.5 mL of DMSO (5.0 mg/mL). For plastic screw-on tubes containing 4.0 mL of plasma, 0.8 mL of PBS buffer were added, mixed, and thermostated in a water bath. Then, 0.2 mL of the tested compound solution in DMSO (5.0 mg/mL) were added to the incubated plasma. Samples were thermostated at 37 °C and at specified intervals. After mixing, 0.2 mL of the test sample were taken and transferred to 0.4 mL of the appropriate internal standard solution (Table 1). After mixing, the samples were centrifuged for […] (5 min, 13,000 rpm). The supernatant was transferred to the tubes and analyzed by the HPLC method in a suitable phase system (Table 1). The initial concentration of the tested compounds in the plasma was 200 μg/mL, while in the analyte solution (supernatant) it was 66.7 μg/mL.
(§1) The HPLC-MS/MS method was used for analysis of the solutions hydrolyzed in plasma (80% v/v, 37 °C, 24 h) and in plasma (80%, v/v) with porcine esterase at a concentration of 5.50 × 10^−9 M (37 °C, 2 h). The samples were prepared according to the procedure described in Section 3.4.1 and Section 3.4.2, and then diluted with water in a proportion of 1:100 (v/v).

[2] = tested on: esterase from porcine liver (PLE); assay: Stability test in plasma (80%, 37 °C) with porcine liver esterase; type: in vitro ADME; conditions: for kobs. ± Δkobs. / t0.5: plasma 80%
Source text: For the correct interpretation of the distribution of the tested compounds under the influence of esterase, it is necessary to know the specificity of the enzymatic reactions (Scheme 1). The biotransformation occurring during enzymatic hydrolysis can be treated as a limited capacity process and described using the Michaelis–Menten equation:(2) V=−dc/dt=Vm·c/KM+c, where: c—substance concentration, V = −(dc/dt)—rate of change of substance concentration, Vm—maximum theoretical speed of the process, and KM—Michaelis constant (numerically equal to the concentration of the substance at which its elimination occurs at a rate equal to half of Vm).
In case the value of the Michaelis constant is much higher than the concentration of the substance (KM >> c), Equation (2) can be simplified to the form of:(3) V=−dc/dt=k2/KM·cE·c=Vm/KM·c=kobs.·c, where: cE—enzyme concentration.
After transformation:(4) kobs.=k2/KM·cE=Vm/KM.
A 1 U/μL aqueous pork esterase solution was prepared by diluting the suspension with 200 μL of water. Here, 168,000 Da was used as the molecular weight of the esterase and the molar concentration of the enzyme in a determined volume of the test sample of 5.0 mL was calculated (1 μL of the enzyme solution in 5.0 mL corresponded to a concentration of 5.50 × 10^−9 M).
For plastic screw-on tubes containing 4.0 mL of plasma, 0.8 mL of PBS buffer was added, mixed, and thermostated in a water bath (37 °C). A fixed volume of enzyme (0.5–11.0 μL) was added to the incubated plasma, mixed, and thermostated for 15 min. Then, 0.2 mL of the tested compound solution in DMSO (5.00 mg/mL) were added, mixed thoroughly, and proceeded as described in Section 3.4.1.
as §1

[3] = Stability of the analyte (supernatant) on storage; type: physicochemical; conditions: supernatant stored in freezer (−20 °C)
Protocol: For each substance, samples with two concentrations in the linearity range of the method were prepared. The supernatants of both solutions were analyzed by HPLC immediately after preparation and after storage at room temperature (25 °C), in a refrigerator (4 °C) and freezer compartment (−20 °C). The degree of decomposition of the tested compounds with respect to the initial value was determined.

[4] = parameters: method as in PMID 18638532; conditions: valaciclovir; cited from earlier work

Structure (SMILES) | kobs. ± Δkobs. (pseudo-first-order rate constant of hydrolysis) ([1]; human plasma 80%) | t0.5 ([1]; human plasma 80%) | kobs. ± Δkobs. ([2]; cE 2.0 U, 1.10·10^−8 M) | t0.5 ([2]; cE 2.0 U, 1.10·10^−8 M) | kobs. ± Δkobs. ([2]; cE 3.0 U, 1.65·10^−8 M) | t0.5 ([2]; cE 3.0 U, 1.65·10^−8 M) | kobs. ± Δkobs. ([2]; cE 4.0 U, 2.20·10^−8 M) | t0.5 ([2]; cE 4.0 U, 2.20·10^−8 M) | kobs. ± Δkobs. ([2]; cE 6.0 U, 3.30·10^−8 M) | t0.5 ([2]; cE 6.0 U, 3.30·10^−8 M) | time for which analyte solution was considered stable [3] | kobs. ± Δkobs. ([2]; cE 5.0 U, 2.75·10^−8 M) | t0.5 ([2]; cE 5.0 U, 2.75·10^−8 M) | other results
COc1ccc(-c2cn3c(=O)c4ncn(COCCO)c4nc3[nH]2)cc1 [6-(4-MeOPh)-TACV, 3,9-Dihydro-3-[(2-hydroxyethoxy)methyl]-6-(4-methoxyphenyl)-9-oxo-5H-imidazo[1,2-a]–purine] | (2.81 ± 0.36)·10^−6 s^−1 | 68.40 h | (7.39 ± 0.49)·10^−6 s^−1 | 1560 min | (8.21 ± 0.58)·10^−6 s^−1 | 1410 min | (8.37 ± 0.24)·10^−6 s^−1 | 1360 min | (9.58 ± 0.39)·10^−6 s^−1 | 1210 min | 27 days | – | – | observed loss of compound ([1]; human plasma 80%, 25-h reaction): 22%; degree of hydrolysis seen by HPLC-MS/MS ([1]; plasma 80%, 24 h): occurred to a small extent; degree of hydrolysis seen by HPLC-MS/MS ([2]; plasma 80% with porcine esterase 5.50·10^−9 M, 2 h): occurred to a small extent
CC(=O)OCCOCn1cnc2c(=O)[nH]c(N)nc21 [Ac-ACV] | (6.47 ± 0.49)·10^−5 s^−1 | 2.98 h | – | 264 min | – | – | (7.94 ± 0.23)·10^−5 s^−1 | 144 min | (1.15 ± 0.02)·10^−4 s^−1 | 102 min | – | – | – | kobs. ± Δkobs. ([2]; cE 8.0 U, 4.40·10^−8 M): (1.55 ± 0.04)·10^−4 s^−1; t0.5 ([2]; cE 8.0 U, 4.40·10^−8 M): 72 min
CCOC(=O)OCCOCn1cnc2c(=O)[nH]c(N)nc21 [Etc-ACV] | (7.99 ± 0.37)·10^−5 s^−1 | 2.41 h | (6.48 ± 0.35)·10^−4 s^−1 | 17.8 min | (8.60 ± 0.34)·10^−4 s^−1 | 13.4 min | (1.20 ± 0.03)·10^−3 s^−1 | 9.6 min | – | – | 27 days | (1.54 ± 0.07)·10^−3 s^−1 | 7.5 min | –
Nc1nc2c(ncn2COCCOC(=O)c2cccnc2)c(=O)[nH]1 [Nic-ACV] | (4.31 ± 0.23)·10^−4 s^−1 | 0.45 h | – | – | (5.35 ± 0.23)·10^−4 s^−1 | 21.6 min | (5.59 ± 0.50)·10^−4 s^−1 | 20.7 min | (6.03 ± 0.22)·10^−4 s^−1 | 19.2 min | – | (5.77 ± 0.32)·10^−4 s^−1 | 20.0 min | –
CC(C)(C)C(=O)OCCOCn1cnc2c(=O)[nH]c(N)nc21 [Piv-ACV] | (2.38 ± 0.17)·10^−5 s^−1 | 8.09 h | (4.71 ± 0.10)·10^−4 s^−1 | 24.5 min | (8.11 ± 0.15)·10^−4 s^−1 | 14.3 min | – | – | – | – | 27 days | (1.40 ± 0.04)·10^−3 s^−1 | 8.3 min | kobs. ± Δkobs. ([2]; cE 1.0 U, 5.50·10^−9 M): (2.97 ± 0.09)·10^−4 s^−1; t0.5 ([2]; cE 1.0 U, 5.50·10^−9 M): 38.9 min
CC(C)C(=O)OCCOCn1cnc2c(=O)[nH]c(N)nc21 [iBut-ACV] | (4.16 ± 0.16)·10^−4 s^−1 | 0.46 h | (3.98 ± 0.13)·10^−3 s^−1 | 2.9 min | (5.49 ± 0.20)·10^−3 s^−1 | 2.1 min | – | – | – | – | – | – | – | kobs. ± Δkobs. ([2]; cE 0.5 U, 2.75·10^−9 M): (1.24 ± 0.12)·10^−3 s^−1; t0.5 ([2]; cE 0.5 U, 2.75·10^−9 M): 9.3 min; kobs. ± Δkobs. ([2]; cE 1.0 U, 5.50·10^−9 M): (2.24 ± 0.09)·10^−3 s^−1; t0.5 ([2]; cE 1.0 U, 5.50·10^−9 M): 5.2 min
CC(C)[C@H](N)C(=O)OCCOCn1cnc2c(=O)[nH]c(N)nc21 [valaciclovir] | – | – | – | – | – | – | – | – | – | – | – | – | – | t0.5 [4]: 226 h
